Laboratory results from publication PMC7470027, “Synthesis and structure-activity relationships of novel 5-(hydroxamic acid)methyl oxazolidinone derivatives as 5-lipoxygenase inhibitors” (Journal of Enzyme Inhibition and Medicinal Chemistry, 2020).

How the values were obtained:
Type in all cases: cell-based
[1] = system: 5-LO-dependent generation of LTB4 from activated human whole blood; test: Inhibition of 5-LO product LTB4 from activated human whole blood (LPS/FMLP); conditions: LPS-primed, FMLP-stimulated human whole blood; 95% confidence interval in brackets; read-out: Human whole blood LTB4 IC50 (CI)
Method: All compounds were evaluated for inhibitory activity against the 5-LO-dependent generation of LTB4 from activated human whole blood. With ethical approval from the Health Sciences Centre Ethical Committee of Kuwait University, heparinised fresh human blood samples from apparently healthy individuals of both sexes were obtained from the Kuwait Central Blood Bank. All donors gave informed consent and the work was carried out in accordance with the “Declaration of Helsinki” for experiments involving human subjects. Aliquots of 185 µl of whole blood were dispensed into each well of a 96-well culture plate containing 5 µl of the priming agent, LPS (1 µg/ml final concentration). […] After further incubation for 15 min at 37 °C, 5 µl of FMLP (1 µM final concentration) was added to stimulate LT production. The reaction was stopped 15 min later, and the supernatants were recovered by centrifugation and stored at −40 °C pending analysis of LTB4 content.
(§1) Appropriately diluted supernatants were assayed for the released products – LTs (LTB4 and LTC4), by the enzyme immunoassay (EIA) method using assay kits supplied by R&D Systems (Minneapolis, MN) and following the manufacturer’s instructions.
(§2) All data were analysed using GraphPad Prism software (GraphPad Software, San Diego, CA). […] Differences between experimental groups were first analysed by one-way ANOVA, followed by Bonferroni’s post-hoc test. A p-value of less than 0.05 was taken as statistically significant.

[2] = system: 5-LO product LTC4 from isolated human monocytes; test: Inhibition of 5-LO product LTC4 from isolated human monocytes (A23187); conditions: Monocyte, calcium ionophore A23187, 95% confidence interval in brackets, read-out: Human monocyte LTC4 IC50 (CI)
Method: Mononuclear cells were first isolated from heparinised blood using the Ficoll-Hypaque gradient centrifugation method. Monocytes were subsequently purified by adherence to plastic according to standard protocols. The purity of the adherent monocytes (CD14+) was routinely confirmed by flow cytometry to be >95% and viability (by trypan blue exclusion method) was routinely >97%. Adherent monocytes were then washed and incubated in 190 µl culture medium RPMI-1640 supplemented with 100 U/ml penicillin, 100 µg/ml streptomycin and 10% heat-inactivated foetal bovine serum (Sigma-Aldrich, St Louis, MO). […] After further incubation for 15 min, the culture supernatants were recovered by centrifugation and stored at −40 °C pending LTC4 determination.
as §1, §2

[3] = system: 5-LO product LTC4 from allergen/IgE-activated bone marrow-derived mouse mast cells (BMMC); test: Inhibition of 5-LO product LTC4 from allergen/IgE-activated bone marrow-derived mouse mast cells (BMMC); conditions: Mus musculus; anti-DNP IgE/DNP-BSA-activated BMMC; 95% confidence interval in brackets; read-out: Mouse mast cell LTC4 IC50 (CI)
Method: Bone marrow-derived mast cells (BMMC) were generated from pathogen-free 5 to 7-weeks-old male Balb/c mice according to the method of Davis et al.[28]. Essentially, bone marrow cells were obtained by flushing the femoral bone marrow and the recovered cells cultured in RPMI 1640 medium supplemented with 10% FBS, 100 U/ml penicillin, and 100 µg/ml streptomycin, 25 mM HEPES, 1.0 mM sodium pyruvate, 0.1 mM nonessential amino acids, 0.0035% 2-mercaptoethanol, and 30 ng/ml mouse recombinant IL-3, with culture medium, replaced every 2 days. Cells were used after 4–8 weeks of culture, by which time at least 97% of the cells would have differentiated into mast cells, as routinely obtained in our laboratory.
The generated BMMCs were seeded at 5 × 10^4 cells/well in a 96-well flat-bottom culture plate and passively sensitised overnight with 0.5 µg/ml anti-DNP monoclonal IgE antibody. The cells were then washed twice to remove any unbound antibody and subsequently resuspended in reaction buffer (135 mM NaCl, 5 mM KCl, 1.8 mM CaCl2, 1 mM MgCl2, 5.6 mM glucose, 0.05% BSA and 20 mM HEPES, pH 7.4). They were then pre-incubated with the test compounds (0.001 − 30 μM) or the solvent (0.05% DMSO) for 15 min before being stimulated with the specific antigen, DNP-BSA (10–30 ng/ml). After 30 min incubation at 37 °C, the amount of LTC4 released into the supernatant was determined by ELISA as described below.
as §1, §2

[4] = system: isolated human monocytes; test: In vitro toxicity testing, MTT viability; conditions: concentrations up to 50 μM, 3 h or 24 h
Method: Adherent human monocytes, prepared as described above were cultured with various concentrations of the test compounds or vehicle, or with 0.05% Triton-X as a positive control for 3 h or 24 h. At the end of the culture, cell viability was determined using the standard MTT assay method. Briefly, 15 μL of the MTT solution (5 mg/ml) was added to each well and incubated at 37 °C for 4 h. After removing the supernatant, 200 μL of DMSO was added to dissolve the crystals. Absorbance at 570 nm was then measured in a microplate reader. Viability was expressed as a percentage of the vehicle-treated cells.

IC50 [1]: 0.7 µM
IC50 [2]: 0.9 µM
IC50 [3]: 1.3 µM
SMILES: CCCCCCC(=O)N(O)C[C@H]1CN(c2ccc(N3CCOCC3)c(F)c2)C(=O)O1 [PH-249, (R)-N-((3-(3-fluoro-4-morpholinophenyl)-2-oxooxazolidin-5-yl)methyl)-N-hydroxyheptanamide]
Effect on viability of isolated human monocytes (MTT) [4]: no significant effect on cell viability
